According to publication PMC7566913, “Dual Gene Delivery Reagents From Antiproliferative Alkylphospholipids for Combined Antitumor Therapy” (Frontiers in Chemistry, 2020):
Values joined by “and” are separate entries in the source; they are usually repeats but may differ in a detail not shown here. Equal values may be shown once. Read-outs that look alike come from different tables or passages of the source.

Key:
16HBE cells [1] = experiment: Cytotoxicity, MTT assay, 16HBE; type: cell-based, human; conditions: 24 h at 37°C
Experimental: (§1) The cells were exposed for a 24-h period to increasing concentration of the pro-APLs, ranging from 500 nM to 1 mM, and cell viability was assessed using the MTT colorimetric assay (Mosmann, [1983]). For the three cell lines, viability decreased in a dose-dependent manner in response to APLs and pro-APLs (Supplementary Figures 2–4). Using the best-fit regression curve method, the IC50 value (concentration that provokes 50% inhibition of the cell growth) was calculated for each compound (Table 4). The three cell lines responded to the compounds with varying sensitivities. […] This is attributed to enzyme-mediated hydrolysis of the pro-APL compounds in the complemented culture medium or in the intracellular compartment, competing with pure pH-controlled chemical hydrolysis. According to its structure, a pro-APL may or not be a substrate for specific lipases and, thus, may or not be hydrolyzed into the parent cytotoxic compound. […]
(§2) At confluency, cells were released […]
(§3) Cells were seeded into 96-well plates (Becton-Dickinson) at the required density (vide supra) in 100 µL of serum containing culture medium. […]
(§4) Mitochondrial activity measurements (MTT assay) was used to assess cytotoxicity of the compounds.
(§5) Lipid samples were prepared from a lipid film (3.6 µmol of compound evaporated from an ethanolic solution) hydrated with aqueous glucose 5 % and vigorously vortexed for 20 s before serial dilution in aqueous glucose 5 %. For addition of lipid samples to cell culture, part of the culture medium in the culture plates prepared the day before (25 µL) was removed and replaced by lipid samples (25 µL). Negative control was obtained by adding glucose 5 % to the cells instead of lipoplexes.
(§6) After a 24-h incubation period at 37 °C, culture supernatant was removed, cells were carefully washed with PBS and MTT (100 µL, 0.5 mg/mL) in complete culture medium was added. After a 1-h incubation period at 37 °C, the MTT sol ution was removed and DMSO (100 µL) was added to lyse cells and dissolve reduced MTT. Intensity of MTT reduction was then evaluated by measuring absorbance at 492 nm. Viability of cells treated with lipids or lipoplexes was expressed as the percentage of the absorbance measured in untreated cells. Value for each sample is the mean of triplicate determinations (± SD). IC50 values were determined within the 95 % confidence interval using nonlinear regression analysis with the GraphPad Prism software (GraphPad Software, San […]
(§7) All data are representative of a triplicate determination and are presented as the mean ± SD.
(§8) Statistical significance between treatments was assessed by one-way analysis of variance (ANOVA) followed by the Dunnett multiple comparison test, using the Kaleidagraph 4.5 software (Synergy Software, Reading, PA, USA). Data were considered as statistically significant for p value less than

[2] = CMC/CAC by pyrene fluorescent probe technique in ultrapure water; type: physicochemical; conditions: pyrene fluorescence
Experimental: The pro-APL molecules have been specifically engineered so they can be metabolized in situ under a biological stimulus to revert to the parent APL with antiproliferative activity. […] We thus aimed to determine the self-assembly properties of the APL prodrugs. […] Pyrene is a probe which fluorescence is sensitive to the polarity of the solubilizing medium. […] Fluorescence measurements were carried out in ultrapure water and data obtained for the various APLs and their prodrugs are shown in Table 2.
Pro-APLs Self-Assembly Properties
Starting from a lipid film, compounds were […]

[3] = Hydrolytic stability of the APL prodrugs monitored by 31P-NMR; type: physicochemical; conditions: for Hydrolytic stability after extended incubation: pH 7.4 and pH 4.5, 31 days at 25°C; for half-life: extrapolated from the experimental data, read-out: t1/2 (time needed for 50% hydrolysis) (converted)
Source text: Aqueous formulation of the APL prodrugs produces nanosized lipid aggregates that most likely enter cells through the endocytosis pathway. To produce the expected intrinsic antineoplastic effect, APL-derived phosphotriesters need to be processed into the bioactive parent APLs. The hydrolysis of the prodrugs may be under the control of a chemical stimulus, e.g., a pH decrease as observed during the maturation of endosomes, or of degradation enzymes that massively enter the endosome compartment when continuing to lysosomes. To get some information on the transformation of pro-APLs into APLs, we monitored the hydrolysis of these compounds over time, at pH 7.4 and 4.5, conditions that mimick the extracellular milieu and the environment of the late endosome, respectively. This monitoring was realized using ^31P-NMR spectroscopy, according to a previously reported method (Pierrat et al., [2013b]). Whatever the compound investigated, only one single ^31P resonance did appear during the course of the experiments, corresponding to that of the parent APL. This confirmed that hydrolysis of the pro-APLs selectively occurred at the acetal center. […] As a general trend, hydrolysis of the pro-APLs was […] under neutral conditions (i.e., pH 7.4) than under acidic ones (i.e., pH 4.5). […] Besides, substitution of one hydrogen atom with a methyl group on the acetal bridge accelerated the rate of hydrolysis of the prodrugs. […] Indeed, in biological media, the enzyme-mediated hydrolysis of such compounds can proceed far quicker than “simple” chemical hydrolysis under pH control (Pierrat et al., [2012]). […]

[4] = Particle size and zeta potential of lipoplexes by DLS; type: physicochemical; conditions: lipoplexes with pCMV-Gluc, 25 °C, 5 % glucose, N/P 3, 1 molar equivalent of DOPE
Source text: The capacity of the pro-APLs to interact electrostatically with nucleic acids and form lipoplexes was checked by standard agarose gel electrophoresis. […] The size (hydrodynamic diameter) and charge (zeta potential, ζ) of the lipoplexes prepared at an N/P ratio of 3 with one molar equivalent of dioleoyl-sn-glycero-3-phosphatidylethanolamine (DOPE), a lipid with fusogenic properties (Hui et al., [1996]; Zuhorn et al., [2005]), were investigated by DLS (Supplementary Table 1).
as measured by DLS. Lipoplexes were prepared at 25 °C, in 5 % glucose, at a N/P ratio of 3 and with
1 molar equivalent of DOPE.
(Gaillard et al., 2019). Data are the mean of three independent measurements (± SD).

H292 cells [5] = experiment: Cytotoxicity, MTT assay, H292; type: cell-based, human
Experimental: as §1, §2, §3, §4, §5, §6, §7, §8

A549 cells [6] = experiment: Cytotoxicity, MTT assay, A549; type: cell-based, human; conditions: A549, 24 h at 37°C
Experimental: as §1, §2, §3, §4, §5, §6, §7, §8

sheep RBC [7] = conditions: cited from earlier work
H292 cells [8] = test system: H292 cells; design: method as in Gaillard et al., 2019; conditions: H292, 24 h at 37°C, MTT assay; ref Gaillard et al., 2019; cited from earlier work
16HBE cells [9] = test system: 16HBE cells; design: method as in Gaillard et al., 2019; conditions: 24 h at 37°C, MTT assay, ref Gaillard et al., 2019; cited from earlier work
[10] = design: method as in Gaillard et al., 2019; conditions: ref Gaillard et al., 2019, cited from earlier work
A549 cells [11] = test system: A549 cells; design: method as in Gaillard et al., 2019; conditions: A549, 24 h at 37°C, MTT assay; ref Gaillard et al., 2019; cited from earlier work
[12] = design: method as in Gaillard et al., 2019; conditions: pyrene fluorescence, ref Gaillard et al., 2019, cited from earlier work
[13] = design: method as in Gaillard et al., 2019; conditions: lipoplexes with pCMV-Gluc, N/P 3, 1 molar equivalent of DOPE; ref Gaillard et al., 2019; cited from earlier work
sheep RBC [14] = experiment: Hemolytic activity, red blood cell leakage assay; conditions: 37°C
Experimental: To evaluate this hypothesis, the hemolytic activity of the APLs and pro-APLs was measured. Sheep RBC were incubated for 1 h with escalating doses of aqueous dispersion of the compounds at 37°C. At the end of the incubation period, hemoglobin leakage was determined spectrophotometrically.
Thus, in order to better characterize the hemolytic effect of the pro-APLs, the incubation period has been extended and release of hemoglobin was measured after 24 h.
Red blood cell (RBC) leakage assay was carried out according to a previously described procedure
(Evans et al, 2013). RBC were prepared from defibrinated sheep blood. Briefly, blood sample (5 mL) was centrifuged at 500 x g for 5 min. After removal of the yellow upper layer, an equal volume of

[15] = Homo sapiens, NCI-H292, H292, 24 h at 37°C
[16] = HEPES buffer with Triton X-100, pH 7.4
[17] = potassium acetate/acetic acid buffer with Triton X-100, pH 4.5

| Compound | CMC (APLs) / CAC (pro-APLs) [2] | H120 (hydrolysis rate after a 120-h incubation period) ([3]; pH 4.5) | H120 (hydrolysis rate after a 120-h incubation period) ([3]; pH 7.4) | Particle size of lipoplexes [4] | IC50 (16HBE cells [1]; Homo sapiens) | HA200 (hemolytic activity at 200 μM) (sheep RBC [14]; 24 h) | IC50 (H292 cells [5]; [15]) | IC50 (A549 cells [6]; Homo sapiens) | other results |
| --- | --- | --- | --- | --- | --- | --- | --- | --- | --- |
| 3-((((((Dodecyloxy)carbonyl)oxy)methoxy)(hexadecyloxy)phosphoryl)oxy)-N,N,N-trimethylpropan-1- aminium chloride [MC12] | 4.1 ± 2.5 µM | 3% | 11% | 186 ± 48 nm |  |  |  |  | IC50 (16HBE cells [1]): 62 ± 15 µM; IC50 (H292 cells [5]; H292, 24 h at 37°C): 81 ± 29 µM; IC50 (A549 cells [6]): 151 ± 42 µM |
| 3-((((((Dodecyloxy)carbonyl)oxy)methoxy)(octadecyloxy)phosphoryl)oxy)-N,N,N-trimethylpropan-1-aminium chloride [PC12] | 4.5 ± 1.6 µM | 6% | 6% | 576 ± 41 nm |  |  |  |  | IC50 (16HBE cells [1]): 82 ± 33 µM; IC50 (H292 cells [5]; H292, 24 h at 37°C): 73 ± 17 µM; IC50 (A549 cells [6]): 89 ± 24 µM |
| CCCCCCCC/C=C\CCCCCCCCCCCCOP(=O)(OCCCCCCCCCCCC)OCCC[N+](C)(C)C (stereo not drawn) [Compound E12] |  |  |  |  |  |  |  |  | HA200 (hemolytic activity at 200 μM) (sheep RBC [7]; sheep RBC, 1 h, 37°C, ref Gaillard et al., 2019): 1.9 ± 0.7%; HA200 (hemolytic activity at 200 μM) (sheep RBC [7]; sheep RBC, 24 h, 37°C, ref Gaillard et al., 2019): 12.0 ± 1.9%; IC50 (H292 cells [8]): 124 ± 11 µM; IC50 (16HBE cells [9]): 225 ± 31 µM; H120 (hydrolysis rate after a 120-h incubation period) ([10]; pH 4.5): 0%; H120 (hydrolysis rate after a 120-h incubation period) ([10]; pH 7.4): 0%; Hydrolytic stability after extended incubation ([10]; pH 7.4 and pH 4.5, 31 days): fully stable; IC50 (A549 cells [11]): 81 ± 7 µM; CMC (APLs) / CAC (pro-APLs) [12]: 0.7 ± 0.3 µM; Particle size of lipoplexes [13]: 194 ± 28 nm and 194 nm |
| CCCCCCCCCCCCCCCCOP(=O)(OCCCCCCCCCCCC)OCC[N+](C)(C)C (stereo not drawn) [Compound M12, 2-(((Dodecyloxy)(hexadecyloxy)phosphoryl)oxy)-N,N,N-trimethylethan-1-aminium triflate] | 1.1 ± 0.6 µM | 0% | 0% | 121 ± 13 nm | 107 ± 14 µM | 63.9 ± 8.1% | 56 ± 7 µM | 46 ± 11 µM | HA200 (hemolytic activity at 200 μM) (sheep RBC [14]; 1 h): 13.1 ± 1.0%; Hydrolytic stability after extended incubation [3]: fully stable |
| CCCCCCCCCCCCCCCCCCOP(=O)(OCCCCCCCCCCCC)OC1CC[N+](C)(C)CC1.[Cl-] (stereo not drawn) [Compound P12, 4-(((Dodecyloxy)(octadecyloxy)phosphoryl)oxy)-1,1-dimethylpiperidin-1-ium chloride] | 1.2 ± 0.4 µM | 0% | 0% | 348 ± 43 nm | 72 ± 7 µM | 35.7 ± 4.1% | 63 ± 5 µM | 56 ± 7 µM | HA200 (hemolytic activity at 200 μM) (sheep RBC [14]; 1 h): 8.1 ± 0.9%; Hydrolytic stability after extended incubation [3]: fully stable |
| CCCCCCCCCCCCCCCCOP(=O)(OCC[N+](C)(C)C)OC(C)OC(=O)CCCCCCCCCCC.[Cl-] (stereo not drawn) [M E^′12, 2-(((1-(Dodecanoyloxy)ethoxy)(hexadecyloxy)phosphoryl)oxy)-N,N,N-trimethylethan-1-aminium chloride] | 1.3 ± 0.7 µM | 91% | 89% | 86 ± 3 nm | 49 ± 6 µM | 101.7 ± 1.8% | 59 ± 10 µM | 139 ± 32 µM | half-life [3, 16]: 18 h; half-life [3, 17]: 17 h |
| CCCCCCCCCCCCCCCCCCOP(=O)(OC1CC[N+](C)(C)CC1)OC(C)OC(=O)CCCCCCCCCCC.[Cl-] (stereo not drawn) [P E^′12, 4-(((1-(Dodecanoyloxy)ethoxy)(octadecyloxy)phosphoryl)oxy)-1,1-dimethylpiperidin-1-ium chloride] | 2.3 ± 1.4 µM | 60% | 60% | 610 ± 54 nm | 60 ± 5 µM | 80.1 ± 0.2% | 116 ± 25 µM | 148 ± 38 µM | half-life [3, 16]: 84 h; half-life [3, 17]: 90 h |
| CCCCCCCC/C=C\CCCCCCCCOP(=O)(OCCC[N+](C)(C)C)OCOC(=O)OCCCCCCCCCCCC.[Cl-] (stereo not drawn) [PC18:1, 3-((((((Dodecyloxy)carbonyl)oxy)methoxy)(oleyloxy)phosphoryl)oxy)-N,N,N-trimethylpropan-1-aminium chloride] | 2.3 ± 1.0 µM |  |  | 489 ± 130 nm | 207 ± 49 µM |  | 186 ± 42 µM | 273 ± 69 µM |  |
| Erufosine [reference compound] |  |  |  |  |  |  |  |  | HA200 (hemolytic activity at 200 μM) (sheep RBC [7]): 84.9 ± 4.5%; IC50 (H292 cells [8]): 46 ± 8 µM; IC50 (16HBE cells [9]): 19 ± 3 µM; IC50 (A549 cells [11]): 57 ± 8 µM; CMC (APLs) / CAC (pro-APLs) [12]: 1.6 ± 0.5 µM; CMC (APLs) / CAC (pro-APLs) ([12]; listed as erufosine): 1.6 µM |
